What is called inhibition is the change of the read-out against control, counted positive when it falls. Low values mean little suppression, high ones strong suppression.

The values below come from PMC6934184, “Selective DNA-PKcs inhibition extends the therapeutic index of localized radiotherapy and chemotherapy” (The Journal of Clinical Investigation, 2019).

The assay addresses T1, MAPK11 (p38 beta) (Homo sapiens, UniProt Q15759).
T1 construct: purchased Thermo Fisher Scientific (Life Technologies) SelectScreen
The assay is described as follows: SelectScreen Z'LYTE. It is filed as biochemical. Summed up:
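Percent values come from Thermo SelectScreen profiling of NU5455, combining activity and binding assays. CSF1R was run in Z'LYTE format at Km app ATP, and CAMK1 in Adapta format with ATP listed at 10.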

T1 sequence (Q15759 whole entry): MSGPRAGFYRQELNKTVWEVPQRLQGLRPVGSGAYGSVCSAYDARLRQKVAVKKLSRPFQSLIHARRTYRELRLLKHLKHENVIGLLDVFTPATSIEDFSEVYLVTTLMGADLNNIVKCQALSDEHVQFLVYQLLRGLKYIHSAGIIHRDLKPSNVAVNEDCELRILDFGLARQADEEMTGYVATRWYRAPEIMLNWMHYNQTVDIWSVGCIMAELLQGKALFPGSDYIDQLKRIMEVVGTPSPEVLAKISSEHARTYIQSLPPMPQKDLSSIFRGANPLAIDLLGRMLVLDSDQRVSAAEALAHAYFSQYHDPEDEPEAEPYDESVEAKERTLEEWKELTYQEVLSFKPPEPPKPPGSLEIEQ

In turn, `CN(C(=O)CN1CCOCC1)c1ccc2sc3c(-c4cccc5c(=O)cc(N6CC7CCC(C6)O7)oc45)cccc3c2c1` [NU5455] displayed an inhibition at 1 µM of 9.5%.
